Assay results from patent US10947251B2, “Therapeutic compounds and methods of use thereof” (GENENTECH, INC., priority 2018, dated 2021).
pIC50: −log10 of the molar value.

Assays:
hNav1.7 [1] = target: T1, hNav1.7 (Homo sapiens (Human), UniProt Q15858); test: Electrophysiological assay (EP), voltage clamp on Syncropatch 384PE; format: cell-based; details: CHO cells expressing Nav1.7, holding potential −50 mV, 7.5 min compound incubation; read-out: EP_SP hNav1.7 EVO IC50
Source text: Example 39C. Electrophysiological Assay (EP) (In Vitro Assay)
Patch voltage clamp electrophysiology allows for the direct measurement and quantification of block of voltage-gated sodium channels (NaV's), and allows the determination of the time- and voltage-dependence of block which has been interpreted as differential binding to the resting, open, and inactivated states of the sodium channel (Hille, B., Journal of General Physiology (1977), 69: 497-515).
The following voltage clamp electrophysiology studies were performed on representative compounds using cells heterologously expressing Nav1.7 or Nav1.5 channels. cDNAs for Nav1.7 (NM_002977) and Nav1.5 (AC137587) were stably expressed in Chinese Hamstr Ovary (CHO) cells and CHL (Chinese Hamster Lung) cells respectively. Sodium currents were measured in the whole-cell configuration using Syncropatch 384PE (Nanlon Technologies, Germany). 1NPC®-384 chips with custom medium resistance and single hole mode are used. Internal solution consists of (in mM): 110 […], 10 CsCl, 20 EGTA, and 10 Hepes (pH adjusted to 7.2); and external solution contains (in mM): 60 NMDG, 80 NaCl, 4 KCl, 1 MgCl2, 2 CaCl2, 2 D-Glucose monohydrate, 10 Hepes (pH adjusted to 7.4 with NaOH).
After system flushing, testing compounds are dissolved in external solution containing 0.1% Pluronic F-127. The chip is moved into the measuring head and the instrument primes the chip with external and internal solutions. 10 l cells are added to the chip from a cell hotel, and a negative pressure of −50 mBar is applied to form a seal. Following treatment with seal enhancer solution and wash-off with external solution, negative pressure of −250 mbar is applied for 1 second to achieve the whole-cell configuration, followed by three washing steps in external solution. 20 µl of compounds is added to 40 µl in each well (1:3 dilution of compounds), and after mixing, 20 l is removed so the volume is retained at 40 ul. After approximately 13 minutes recordings, 20 µl/well of 2 uM TTX, or 333 uM Tetracaine (for Nav1.5) is added to achieve full block.
For voltage protocol, an holding potential of −50 mV is applied during the whole experiment. A depolarizing step is applied to −10 mV for 10 ms, followed by a hyperpolarization step to −150 mV for 20 ms to allow channel recovery from inactivation. A second depolarizing step is applied from −150 mV to −10 mV for 10 ms, where currents were measured to derive blocking effects of compounds. Inhibition is determined based on 7.5 min of compound incubation.

hNav1.7 [2] = target: T1, hNav1.7; test: Tritiated compound binding to membranes from cells heterologously expressing hNav1.7 and the β1 subunit (LBA); details: competitive binding vs [3H]compound, membranes with hNav1.7 and β1 subunit; read-out: Nav1.7 LBA EVO IC50
Method: Example 39A. Tritiated Compound Binding to Membranes Isolated from Cells that Heterologously Express hNav1.7 and the β1 Subunit
Preparation of membranes containing recombinantly expressed sodium channels: Frozen recombinant cell pellets were thawed on ice and diluted to 4 times the cell pellet weight with ice cold 50 mM Tris HCl, pH 7.4 buffer. The cell suspensions were homogenized on ice using a motorized glass dounce homogeniser. Homogenates were further diluted 8.4 times with ice cold 50 mM Tris HCl, pH 7.4 buffer and then centrifuged at 200×g at 4° C. for 15 min. The supernatants were collected and centrifuged at 10000×g at 4° C. for 50 min. The pellets were then re-suspended in 100 mM NaCl, 20 mM Tris HCl, pH 7.4 buffer containing 1% v/v protease inhibitors (Calbiochem) and re-homogenized on ice. The homogenized membranes were then processed through a syringe equipped with a 26 gauge needle. Protein concentrations were determined by Bradford Assay and the membranes were stored at −80° C.
Saturation experiments. A competitive NaV1.7 inhibitor having a methyl group was tritiated. Three tritiums were incorporated in place of methyl hydrogens to generate [^3H]compound. Binding of this radioligand was performed in 5 mL borosilicate glass test tubes at room temperature. Binding was initiated by adding membranes to increasing concentrations of [^3H]compound in 100 mM NaCl, 20 mM Tris HCl, pH 7.4 buffer containing 0.01% w/v bovine serum albumin (BSA) for 18 h. Non-specific binding was determined in the presence of 1 μM unlabeled compound. After 18 h, the reactants were filtered through GF/C glass fiber filters presoaked in 0.5% w/v polyethylene imine. Filters were washed with 15 mL ice cold 100 mM NaCl, 20 mM Tris HCl, pH7.4 buffer containing 0.25% BSA to separate bound from free ligand. [^3H]compound bound to filters was quantified by liquid scintillation counting.
Binding reactions were performed in 96-well polypropylene plates at room temperature for 18 h. In 360 μL, membranes were incubated with 100 pM [^3H]compound and increasing concentrations of Test Compound. Non-specific binding was defined in the presence of 1 μM unlabeled compound. Reactions were transferred and filtered through 96-well glass fiber/C filter plates presoaked with 0.5% polyethylene imine. The filtered reactions were washed 5 times with 200 μL ice cold buffer containing 0.25% BSA. Bound radioactivity was determined by liquid scintillation counting.
For saturation experiments, non-specific binding was subtracted from total binding to provide specific binding and these values were recalculated in terms of pmol ligand bound per mg protein. Saturation curves were constructed and dissociation constants were calculated using the single site ligand binding model: Beq=(Bmax*X)/(X+Kd), where Beq is the amount of ligand bound at equilibrium, Bmax is the maximum receptor density, Kd is the dissociation constant for the ligand, and X is the free ligand concentration. For competition studies percent inhibition was determined and IC50 values were calculated using a 4 parameter logistic model (% inhibition=(A+((B−A)/(1+((x/C)^D)))) using XLfit, where A and B are the maximal and minimum inhibition respectively, C is the IC50 concentration and D is the (Hill) slope.
Example 39B. Tritiated Compound Binding to Membranes Isolated from Cells that Heterologous Express hNav1.7 and the β1 Subunit
Following the procedure described in Example 39A, and making modifications as required to: centrifuge supernatants at 100000×g instead of 10000×g; re-suspend pellets in a buffer containing 0.01% BSA in addition to 100 mM NaCl, 20 mM Tris HCl, pH 7.4 buffer, and 1% v/v […]; and storing membranes at −80° C. in single use aliquots instead of pooled.
Saturation experiments: Following the procedure described in Example 243A, and making modifications as required to incubate [3H]compound for 3 hours instead of 18 hours. […]

SMILES	pIC50 (hNav1.7 [1])	pIC50 (hNav1.7 [2])
COc1cc(-c2cccc(C(F)(F)F)c2)c(F)cc1N1CCO[C@@H]2CN(S(=O)(=O)Nc3ccon3)CC[C@H]21 [Example 25, (4aR,8aR)-1-(2-fluoro-5-methoxy-3′-(trifluoromethyl)-[1,1′-biphenyl]-4-yl)-N-(isoxazol-3-yl)hexahydro-1H-pyrido[3,4-b][1,4]oxazine-6(7H)-sulfonamide]	8.63	6.68
COc1cc(-c2cccc(C(F)(F)F)c2)c(F)cc1N1CCO[C@H]2CN(S(=O)(=O)Nc3ccon3)CC[C@@H]21 [Example 26, (4aS,8aS)-1-(2-fluoro-5-methoxy-3′-(trifluoromethyl)-[1,1′-biphenyl]-4-yl)-N-(isoxazol-3-yl)hexahydro-1H-pyrido[3,4-b][1,4]oxazine-6(7H)-sulfonamide]	7.97	7.20
COc1cc(-c2cccc(C(F)(F)F)c2)c(F)cc1N1CCO[C@@H]2CN(S(=O)(=O)Nc3ccncn3)CC[C@H]21 [Example 27, (4aR,8aR)-1-(2-fluoro-5-methoxy-3′-(trifluoromethyl)-[1,1′-biphenyl]-4-yl)-N-(pyrimidin-4-yl)hexahydro-1H-pyrido[3,4-b][1,4]oxazine-6(7H)-sulfonamide]	8.69	7.67
COc1cc(-c2cccc(C(F)(F)F)c2)c(F)cc1N1CCO[C@H]2CN(S(=O)(=O)Nc3ccncn3)CC[C@@H]21 [Example 28, (4aS,8aS)-1-(2-fluoro-5-methoxy-3′-(trifluoromethyl)-[1,1′-biphenyl]-4-yl)-N-(pyrimidin-4-yl)hexahydro-1H-pyrido[3,4-b][1,4]oxazine-6(7H)-sulfonamide]	8.68	7.58
COc1cc(-c2cccc(OC(F)(F)F)c2)c(F)cc1N1C(=O)CO[C@@H]2CN(S(=O)(=O)Nc3ccon3)CC[C@H]21 [Example 29, (4aR,8aR)-1-(2-fluoro-5-methoxy-3′-(trifluoromethoxy)-[1,1′-biphenyl]-4-yl)-N-(isoxazol-3-yl)-2-oxohexahydro-1H-pyrido[3,4-b][1,4]oxazine-6(7H)-sulfonamide]	8.66	7.21
COc1cc(-c2cccc(OC(F)(F)F)c2)c(F)cc1N1C(=O)CO[C@H]2CN(S(=O)(=O)Nc3ccon3)CC[C@@H]21 [Example 30, (4aS,8aS)-1-(2-fluoro-5-methoxy-3′-(trifluoromethoxy)-[1,1′-biphenyl]-4-yl)-N-(isoxazol-3-yl)-2-oxohexahydro-H-pyrido[3,4-b][1,4]oxazine-6(7H)-sulfonamide]	8.63	7.45
COc1cc(-c2cccc(OC(F)(F)F)c2)c(F)cc1N1CCO[C@@H]2CN(S(=O)(=O)Nc3ccon3)CC[C@H]21 [Example 31, (4aR,8aR)-1-(2-fluoro-5-methoxy-3′-(trifluoromethoxy)-[1,1′-biphenyl]-4-yl)-N-(isoxazol-3-yl)hexahydro-H-pyrido[3,4-b][1,4]oxazine-6(7H)-sulfonamide]	8.22	6.89
COc1cc(-c2cccc(OC(F)(F)F)c2)c(F)cc1N1CCO[C@H]2CN(S(=O)(=O)Nc3ccon3)CC[C@@H]21 [Example 32, (4aS,8aS)-1-(2-fluoro-5-methoxy-3′-(trifluoromethoxy)-[1,1′-biphenyl]-4-yl)-N-(isoxazol-3-yl)hexahydro-1H-pyrido[3,4-b][1,4]oxazine-6(7H)-sulfonamide]	7.96	6.83
COc1cc(-c2cccc(C(F)(F)F)c2)c(F)cc1N1C(=O)OC[C@@H]2CN(S(=O)(=O)Nc3ccon3)CC[C@H]21 [Example 33, (4aR,8aR)-1-(2-fluoro-5-methoxy-3′-(trifluoromethyl)-[1,1′-biphenyl]-4-yl)-N-(isoxazol-3-yl)-2-oxohexahydro-2H-pyrido[4,3-d][1,3]oxazine-6(4H)-sulfonamide]	7.98	6.95
COc1cc(-c2cccc(C(F)(F)F)c2)c(F)cc1N1C(=O)OC[C@H]2CN(S(=O)(=O)Nc3ccon3)CC[C@@H]21 [Example 34, (4aS,8aS)-1-(2-fluoro-5-methoxy-3′-(trifluoromethyl)-[1,1′-biphenyl]-4-yl)-N-(isoxazol-3-yl)-2-oxohexahydro-2H-pyrido[4,3-d][1,3]oxazine-6(4H)-sulfonamide]	6.71	5.70
COc1cc(-c2cccc(C(F)(F)F)c2)c(F)cc1N1C(=O)CC[C@@H]2CN(S(=O)(=O)Nc3ccon3)CC[C@H]21 [Example 35, (4aR,8aR)-1-(2-fluoro-5-methoxy-3′-(trifluoromethyl)-[1,1′-biphenyl]-4-yl)-N-(isoxazol-3-yl)-2-oxooctahydro-1,6-naphthyridine-6(2H)-sulfonamide]	8.54	7.31
COc1cc(-c2cccc(C(F)(F)F)c2)c(F)cc1N1C(=O)CC[C@@H]2CN(S(=O)(=O)Nc3ccon3)CC[C@@H]21 [Example 38, (4aR,8aS)-1-(2-fluoro-5-methoxy-3′-(trifluoromethyl)-[1,1′-biphenyl]-4-yl)-N-(isoxazol-3-yl)-2-oxooctahydro-1,6-naphthyridine-6(2H)-sulfonamide]	7.97	6.19
